Test results published in US12227742B2, “Nucleic acid modifiers” (THE BROAD INSTITUTE, INC., priority 2017, dated 2025).
“Also recorded” adds a separate entry of the source.

Columns and labels:
target DNA = assay: AsCpf1 activity, mutational analysis; format: biochemical
supercoiled plasmid DNA = assay: Plasmid DNA cleavage by small-molecule strand breakers (gel electrophoresis); format: biochemical; details: for DNA cleavage activity on supercoiled plasmid: gel electrophoresis, FIG. 19A-19D; for DNA cleavage activity on supercoiled plasmid / Effect of reducing agent on DNA cleavage: supercoiled plasmid; for Effect of reducing agent on DNA cleavage: with reducing agent, FIG. 19A, 19B
Experimental: Nitracrine (compound 1.15) was synthesized according to the reaction scheme depicted in FIG. 5. Plasmid DNA was incubated with nitracrine alone (10, 12, 14 μM), nitracrine with exposure to UV (365 nm), or nitracrine with exposure to UV and reducing agent TCEP (FIG. 8A). The same experiment was repeated but using 16, 18, or 20 μM nitracrine (FIG. 8B).
Plasmid DNA was incubated with nitracrine alone (10, 12, 14 μM), nitracrine with exposure to UV (365 nm), or nitracrine with exposure to UV and reducing agent DTT (FIG. 9A). The same experiment was repeated but using 16, 18, or 20 μM nitracrine (FIG. 9B).
Plasmid DNA was incubated with 16 μM nitracrine and exposed to UV (365 nm) over a range of 30-60 minutes (FIG. 10).
DNA cleavage activity of synthetic strand breakers. A series of small molecule DNA strand breakers having diverse structures and cleavage mechanisms were tested (FIG. 19A-19D). A supercoiled plasmid was used as a model substrate DNA, as both single and double-strand breaks can easily be detected using gel electrophoresis.

Factor VII = details: LNP siRNA systems containing these lipids; cited from earlier work
pcDNA = pcDNA cleavage by compound 1.15, gel electrophoresis; format: biochemical

Q: With R192A: AsCpf1 mutant, REC1 as the molecule, how does the activity (target DNA) read?
A: reduced activities; also recorded: Reduced activity

Q: Which results are given for `CC[C@@]1(O[C@H]2C[C@H](OC)[C@@H](O)[C@H](C)O2)[C@H](O[C@@H]2C[C@H](O)[C@@H](N(C)C)[C@H](C)O2)C2=Cc3c(O)c4c(c(O)c3C2=C(O)[C@@H]1[C@H]1C(=O)c2c(c(=[N+]=[N-])c3c(O)c5c(=O)ccc(=O)c5c(O)c23)[C@@H](O[C@@H]2C[C@H](O)[C@@H](N(C)C)[C@H](C)O2)[C@@]1(CC)O[C@H]1C[C@H](OC)[C@@H](O)[C@H](C)O1)C(=O)C=CC4=O` [Lomaiviticin C]?
A: DNA cleavage activity on supercoiled plasmid (supercoiled plasmid DNA): cleave DNA at low micromolar concentrations; Effect of reducing agent on DNA cleavage (supercoiled plasmid DNA): accelerated by a reducing agent

Q: For `CCCCC/C=C\C/C=C\CCCCCCCCOCC(CN(C)C)OCCCCCCCC/C=C\C/C=C\CCCCC` (stereo not shown) [DLinDMA, 1,2-dilinoleyloxy-3-N,N-dimethylaminopropane], which “gene silencing potency in hepatocytes in vivo (rank order)” value (“gene silencing potency in hepatocytes” below) (Factor VII) is on record?
A: DLinKC2-DMA>DLinKDMA>DLinDMA>>DLinDAP

Q: Which pcDNA cleavage (pcDNA; 16 μM, UV (365 nm) from 30 to 60 min) does the source give for `CN(C)CCCNc1c2ccccc2nc2cccc([N+](=O)[O-])c12` [compound 1.15, nitracrine] here?
A: pcDNA cleavage

Q: And the pcDNA cleavage (pcDNA; 10-20 μM, UV (365 nm), presence and absence of reducing agent DTT)?
A: pcDNA cleavage

Q: What about the pcDNA cleavage (pcDNA; 10-20 μM, UV (365 nm), presence and absence of reducing agent TCEP) of the same molecule?
A: pcDNA cleavage

Q: With R176A: AsCpf1 mutant, REC1 as the molecule, how does the activity (target DNA) read?
A: reduced activities; also recorded: Reduced activity

Q: Which activity (target DNA) does the source give for G783P: AsCpf1 mutant, WED here?
A: reduced activities; also recorded: Reduced activity

Q: With `CC(C)C(=O)O[C@H]1c2c(c3c(=O)c4cccc(O)c4c(=O)c=3c2=[N+]=[N-])[C@@H](O)[C@H]2O[C@@]21C` [FL-120B] as the molecule, how does the “DNA cleavage activity on supercoiled plasmid” value (supercoiled plasmid DNA) read?
A: cleave DNA at low micromolar concentrations

Q: What about the “Effect of reducing agent on DNA cleavage” value (supercoiled plasmid DNA) of the same molecule?
A: accelerated by a reducing agent

Q: Which “gene silencing potency in hepatocytes” value (Factor VII) does the source give for `CCCCC/C=C\C/C=C\CCCCCCCC(=O)OCC(CN(C)C)OC(=O)CCCCCCC/C=C\C/C=C\CCCCC` (stereo not shown) [DLinDAP, 1,2-dilineoyl-3-dimethylammonium-propane] here?
A: DLinKC2-DMA>DLinKDMA>DLinDMA>>DLinDAP

Q: For `CCCCC/C=C\C/C=C\CCCCCCCCC1(CCCCCCCC/C=C\C/C=C\CCCCC)OCC(CN(C)C)O1` (stereo not shown) [DLinKDMA, 1,2-dilinoleyloxy-keto-N,N-dimethyl-3-aminopropane], which “gene silencing potency in hepatocytes” value (Factor VII) is on record?
A: DLinKC2-DMA>DLinKDMA>DLinDMA>>DLinDAP

Q: Which results are given for `CN(C)CCCNc1c2ccccc2nc2cccc([N+](=O)[O-])c12` [Nitracrine]?
A: DNA cleavage over UV exposure time (supercoiled plasmid DNA; plasmid DNA, 16 μM nitracrine, UV 365 nm for 30-60 minutes): Cleavage was observed under all conditions; DNA cleavage with exposure to UV (supercoiled plasmid DNA; plasmid DNA, nitracrine 10-20 μM, UV 365 nm): DNA cleavage was observed at all nitracrine concentrations; DNA cleavage with exposure to UV and reducing agent DTT (supercoiled plasmid DNA; plasmid DNA, nitracrine 10-20 μM, UV 365 nm, DTT): including with DTT; DNA cleavage activity on supercoiled plasmid (supercoiled plasmid DNA): cleaves DNA when irradiated by light

Q: Which “gene silencing potency in hepatocytes” value (Factor VII) does the source give for `CCCCC/C=C\C/C=C\CCCCCCCCC1(CCCCCCCC/C=C\C/C=C\CCCCC)OCC(CCN(C)C)O1` (stereo not shown) [DLinKC2-DMA, 1,2-dilinoleyl-4-(2-dimethylaminoethyl)-[1,3]-dioxolane] here?
A: DLinKC2-DMA>DLinKDMA>DLinDMA>>DLinDAP

Q: With R951A: AsCpf1 mutant, bridge helix as the molecule, how does the activity (target DNA) read?
A: reduced activities
